Assay results from patent publication US10851110B2, “Heterocyclic inhibitors of PTPN11” (priority 2016, dated 2020).

Test system: BT474 human breast carcinomas cell line
Assay: In Vivo Tumor Models: BT474 xenograft
Settings: BT474 (HER2+) xenograft in CB-17/SCID mice, 100 mg/kg once per day oral gavage, 5 days on/2 days off, 4 weeks
Text: Xenografts were initiated with BT474 human breast carcinomas cell line and maintained by serial subcutaneous transplantation in CB-17/SCID mice (Charles River). On the day of tumor implant, each test mouse received a 1 mm^3 BT474 fragment implanted subcutaneously in the right flank, and tumor growth was monitored as the average size approached the target range of 100 to 150 mm3. About three weeks post-implantation, the animals were randomized and grouped based on tumor volume and mouse body weight. […] Tumors were measured in two dimensions using calipers, and volume was calculated using the formula: Tumor Volume (mm^3)=w^2×l/2.

## CC1(N)CCN(c2cnc3c(-c4cccc(Cl)c4Cl)n[nH]c3n2)CC1 [Example 1, 1-(3-(2,3-dichlorophenyl)-1H-pyrazolo[3,4-b]pyrazin-6-yl)-4-methylpiperidin-4-amine]
  tolerability (body weight): tolerated dose
  tumor growth: significant suppression of tumor growth
